In ChEMBL document CHEMBL1201861, “Genomics of Drug Sensitity in Cancer screening data, Wellcome Trust Sanger Institute”:

Experiments:
Test in all cases: cells
CP66-MEL = format: functional, cell-based, Homo sapiens; details: Homo sapiens, CP66-MEL;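 further: growth inhibition of CP66-MEL cells determined in a cell viability assay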
Description: SANGER: Inhibition of human CP66-MEL cell growth in a cell viability assay.

CTV-1 = format: functional, cell-based, Homo sapiens; details: Homo sapiens, CTV-1;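 further: growth inhibition of the cell line, read out with a cell viability assay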
Description: SANGER: Inhibition of human CTV-1 cell growth in a cell viability assay.

CW-2 = format: functional, cell-based, Homo sapiens; details: Homo sapiens, CW-2;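 further: growth inhibition of CW-2 cells, read out by a cell viability assay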
Description: SANGER: Inhibition of human CW-2 cell growth in a cell viability assay.

DB = format: functional, cell-based, Homo sapiens; details: Homo sapiens, DB
Description: SANGER: Inhibition of human DB cell growth in a cell viability assay.

DOHH-2 = format: functional, cell-based, Homo sapiens; details: Homo sapiens, DOHH-2;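 further: growth inhibition of human DOHH-2 cells, read out with a cell viability assay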
Description: SANGER: Inhibition of human DOHH-2 cell growth in a cell viability assay.

EKVX = format: functional, cell-based, Homo sapiens; details: Homo sapiens, EKVX;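 further: growth inhibition of human EKVX cells, read out with a cell viability assay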
Description: SANGER: Inhibition of human EKVX cell growth in a cell viability assay.

ES6 = format: functional, cell-based, Homo sapiens; details: Homo sapiens, ES6;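 further: growth inhibition of human ES6 cells, read out with a cell viability assay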
Description: SANGER: Inhibition of human ES6 cell growth in a cell viability assay.

ETK-1 = format: functional, cell-based, Homo sapiens; details: Homo sapiens, ETK-1;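 further: growth inhibition of human ETK-1 cells, read out with a cell viability assay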
Description: SANGER: Inhibition of human ETK-1 cell growth in a cell viability assay.

EW-18 = format: functional, cell-based, Homo sapiens; details: Homo sapiens, EW-18;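 further: growth inhibition of EW-18 cells, read out by a cell viability assay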
Description: SANGER: Inhibition of human EW-18 cell growth in a cell viability assay.

EOL1 = format: functional, cell-based, Homo sapiens; details: Homo sapiens, EOL1;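 further: growth inhibition of EoL-1 cells, read out by a cell viability assay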
Description: SANGER: Inhibition of human EoL-1-cell cell growth in a cell viability assay.

GCIY = format: functional, cell-based, Homo sapiens; details: Homo sapiens, GCIY;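 further: growth inhibition of the human GCIY cell line, read out by a cell viability assay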
Description: SANGER: Inhibition of human GCIY cell growth in a cell viability assay.

HT-144 = format: functional, cell-based, Homo sapiens; details: Homo sapiens, HT-144
Description: SANGER: Inhibition of human HT-144 cell growth in a cell viability assay.

HuTu80 = format: functional, cell-based, Homo sapiens, HUTU-80; details: Homo sapiens, HuTu80;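 further: growth inhibition of HuTu80 human cells, determined with a cell viability readout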
Description: SANGER: Inhibition of human HUTU-80 cell growth in a cell viability assay.

IST-MEL1 = format: functional, cell-based, Homo sapiens; details: Homo sapiens, IST-MEL1;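 further: growth inhibition of the cell line, read out with a cell viability assay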
Description: SANGER: Inhibition of human IST-MEL1 cell growth in a cell viability assay.

JVM-3 = format: functional, cell-based, Homo sapiens; details: Homo sapiens, JVM-3;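 further: growth inhibition of human JVM-3 cells, read out with a cell viability assay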
Description: SANGER: Inhibition of human JVM-3 cell growth in a cell viability assay.

KGN = format: functional, cell-based, Homo sapiens; details: Homo sapiens, KGN;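 further: growth inhibition of KGN cells, read out with a cell viability assay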
Description: SANGER: Inhibition of human KGN cell growth in a cell viability assay.

KM12 = format: functional, cell-based, Homo sapiens; details: Homo sapiens, KM12;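 further: KM12 cell growth inhibition, read out with a cell viability assay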
Description: SANGER: Inhibition of human KM12 cell growth in a cell viability assay.

KNS-42 = format: functional, cell-based, Homo sapiens; details: Homo sapiens, KNS-42;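 further: growth inhibition of KNS-42 cells, read out with a cell viability assay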
Description: SANGER: Inhibition of human KNS-42 cell growth in a cell viability assay.

KY821 = format: functional, cell-based, Homo sapiens; details: Homo sapiens, KY821;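 further: growth inhibition of human KY821 cells, read out by a cell viability assay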
Description: SANGER: Inhibition of human KY821 cell growth in a cell viability assay.

LB2241-RCC = format: functional, cell-based, Homo sapiens; details: Homo sapiens, LB2241-RCC;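 further: cell viability assay measuring how strongly the cultured human renal carcinoma line is prevented from growing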
Description: SANGER: Inhibition of human LB2241-RCC cell growth in a cell viability assay.

Lu-65 = format: functional, cell-based, Homo sapiens; details: Homo sapiens, Lu-65;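 further: growth inhibition of Lu-65 cancer cells, read out by a cell viability assay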
Description: SANGER: Inhibition of human LU-65 cell growth in a cell viability assay.

MEG-01 = format: functional, cell-based, Homo sapiens; details: Homo sapiens, MEG-01;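 further: growth inhibition of MEG-01 cells, read out by a cell viability assay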
Description: SANGER: Inhibition of human MEG-01 cell growth in a cell viability assay.

MHH-PREB-1 = format: functional, cell-based, Homo sapiens; details: Homo sapiens, MHH-PREB-1;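 further: cell viability assay measuring inhibition of proliferation of human MHH-PREB-1 cells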
Description: SANGER: Inhibition of human MHH-PREB-1 cell growth in a cell viability assay.

MN-60 = format: functional, cell-based, Homo sapiens; details: Homo sapiens, MN-60;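 further: growth inhibition of the MN-60 cell line, determined with a cell viability assay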
Description: SANGER: Inhibition of human MN-60 cell growth in a cell viability assay.

MOLT-4 = format: functional, cell-based, Homo sapiens; details: Homo sapiens, MOLT-4;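 further: growth inhibition of MOLT-4 cells, determined with a cell viability readout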
Description: SANGER: Inhibition of human MOLT-4 cell growth in a cell viability assay.

MS-1 = format: functional, cell-based, Homo sapiens; details: Homo sapiens, MS-1;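 further: growth inhibition of MS-1 cells, read out by cell viability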
Description: SANGER: Inhibition of human MS-1 cell growth in a cell viability assay.

MV4-11 = format: functional, cell-based, Homo sapiens, MV-4-11; details: Homo sapiens, MV4-11;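 further: cell viability readout measuring growth inhibition of human MV-4-11 cells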
Description: SANGER: Inhibition of human MV-4-11 cell growth in a cell viability assay.

MZ1-PC = format: functional, cell-based, Homo sapiens; details: Homo sapiens, MZ1-PC;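 further: cell viability assay measuring growth inhibition of human MZ1-PC cells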
Description: SANGER: Inhibition of human MZ1-PC cell growth in a cell viability assay.

NB5 = format: functional, cell-based, Homo sapiens; details: Homo sapiens, NB5;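 further: growth inhibition of NB5 cells, read out as cell viability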
Description: SANGER: Inhibition of human NB5 cell growth in a cell viability assay.

NB6 = format: functional, cell-based, Homo sapiens; details: Homo sapiens, NB6;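 further: growth inhibition of NB6 cells, read out by a cell viability assay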
Description: SANGER: Inhibition of human NB6 cell growth in a cell viability assay.

NCI-H1092 = format: functional, cell-based, Homo sapiens; details: Homo sapiens, NCI-H1092;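 further: cell growth inhibition measured with a cell viability assay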
Description: SANGER: Inhibition of human NCI-H1092 cell growth in a cell viability assay.

NCI-H1155 = format: functional, cell-based, Homo sapiens; details: Homo sapiens, NCI-H1155;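 further: cell growth inhibition measured by a viability assay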
Description: SANGER: Inhibition of human NCI-H1155 cell growth in a cell viability assay.

NEC8 = format: functional, cell-based, Homo sapiens; details: Homo sapiens, NEC8;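 further: growth inhibition of human NEC8 cells, read out by a cell viability assay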
Description: SANGER: Inhibition of human NEC8 cell growth in a cell viability assay.

NKM-1 = format: functional, cell-based, Homo sapiens; details: Homo sapiens, NKM-1;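 further: growth inhibition of NKM-1 cells, read out with a cell viability assay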
Description: SANGER: Inhibition of human NKM-1 cell growth in a cell viability assay.

NOMO-1 = format: functional, cell-based, Homo sapiens; details: Homo sapiens, NOMO-1;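 further: growth inhibition of human NOMO-1 cells measured by a cell viability assay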
Description: SANGER: Inhibition of human NOMO-1 cell growth in a cell viability assay.

OMC-1 = format: functional, cell-based, Homo sapiens; details: Homo sapiens, OMC-1;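 further: growth inhibition of the OMC-1 cell line, measured by a cell viability assay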
Description: SANGER: Inhibition of human OMC-1 cell growth in a cell viability assay.

RKO = format: functional, cell-based, Homo sapiens; details: Homo sapiens, RKO;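 further: growth inhibition of human RKO cells, read out with a cell viability assay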
Description: SANGER: Inhibition of human RKO cell growth in a cell viability assay.

RXF 393 = format: functional, cell-based, Homo sapiens; details: Homo sapiens, RXF 393;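 further: growth inhibition of human RXF 393 cells, read out with a cell viability assay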
Description: SANGER: Inhibition of human RXF393 cell growth in a cell viability assay.

SF-268 = format: functional, cell-based, Homo sapiens; details: Homo sapiens, SF-268;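 further: growth inhibition of SF-268 cells determined with a cell viability assay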
Description: SANGER: Inhibition of human SF268 cell growth in a cell viability assay.

SK-N-FI = format: functional, cell-based, Homo sapiens; details: Homo sapiens, SK-N-FI;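 further: cell viability assay measuring growth inhibition of human SK-N-FI cells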
Description: SANGER: Inhibition of human SK-N-FI cell growth in a cell viability assay.

SW684 = format: functional, cell-based, Homo sapiens; details: Homo sapiens, SW684;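 further: growth inhibition of human SW684 cells, measured by a cell viability assay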
Description: SANGER: Inhibition of human SW684 cell growth in a cell viability assay.

SW982 = format: functional, cell-based, Homo sapiens; details: Homo sapiens, SW982;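 further: growth inhibition of SW982 cells, read out with a cell viability assay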
Description: SANGER: Inhibition of human SW982 cell growth in a cell viability assay.

8-MG-BA = format: functional, cell-based, Homo sapiens; details: Homo sapiens, 8-MG-BA;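 further: growth inhibition of 8-MG-BA cells, read out with a cell viability assay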
Description: SANGER: Inhibition of human 8-MG-BA cell growth in a cell viability assay.

BB65-RCC = format: functional, cell-based, Homo sapiens; details: Homo sapiens, BB65-RCC;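 further: growth inhibition of the cell line, measured with a cell viability assay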
Description: SANGER: Inhibition of human BB65-RCC cell growth in a cell viability assay.

BT-474 = format: functional, cell-based, Homo sapiens; details: Homo sapiens, BT-474
Description: SANGER: Inhibition of human BT-474 cell growth in a cell viability assay.

TE-12 = format: functional, cell-based, Homo sapiens; details: Homo sapiens, TE-12;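 further: growth inhibition of TE-12 cells, read out by a cell viability assay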
Description: SANGER: Inhibition of human TE-12 cell growth in a cell viability assay.

TGBC24TKB = format: functional, cell-based, Homo sapiens; details: Homo sapiens, TGBC24TKB;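 further: growth inhibition of human TGBC24TKB cells, read out with a cell viability assay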
Description: SANGER: Inhibition of human TGBC24TKB cell growth in a cell viability assay.

TGW = format: functional, cell-based, Homo sapiens; details: Homo sapiens, TGW;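 further: growth inhibition of human TGW cells, read out with a cell viability assay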
Description: SANGER: Inhibition of human TGW cell growth in a cell viability assay.

no-10 = format: functional, cell-based, Homo sapiens; details: Homo sapiens;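 further: growth inhibition of no-10 cells, read out with a cell viability assay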
Description: SANGER: Inhibition of human no-10 cell growth in a cell viability assay.

COLO-668 = format: functional, cell-based, Homo sapiens; details: Homo sapiens, COLO-668
Description: SANGER: Inhibition of human COLO-668 cell growth in a cell viability assay.

C=C(c1ccc(C(=O)O)cc1)c1cc2c(cc1C)C(C)(C)CCC2(C)C [BEXAROTENE]
IC50 (CP66-MEL): > 8000 nM | IC50 (CTV-1): > 8000 nM | IC50 (CW-2): > 8000 nM | IC50 (DB): > 8000 nM | IC50 (DOHH-2): > 8000 nM | IC50 (EKVX): 165 nM | IC50 (ES6): > 8000 nM | IC50 (ETK-1): > 8000 nM | IC50 (EW-18): > 8000 nM | IC50 (EOL1): > 8000 nM | IC50 (GCIY): > 8000 nM | IC50 (HT-144): > 8000 nM | IC50 (HuTu80): > 8000 nM | IC50 (IST-MEL1): > 8000 nM | IC50 (JVM-3): > 8000 nM | IC50 (KGN): > 8000 nM | IC50 (KM12): > 8000 nM | IC50 (KNS-42): > 8000 nM | IC50 (KY821): > 8000 nM | IC50 (LB2241-RCC): > 8000 nM | IC50 (Lu-65): > 8000 nM | IC50 (MEG-01): > 8000 nM | IC50 (MHH-PREB-1): > 8000 nM | IC50 (MN-60): > 8000 nM | IC50 (MOLT-4): > 8000 nM | IC50 (MS-1): > 8000 nM | IC50 (MV4-11): 453 nM | IC50 (MZ1-PC): > 8000 nM | IC50 (NB5): > 8000 nM | IC50 (NB6): > 8000 nM | IC50 (NCI-H1092): > 8000 nM | IC50 (NCI-H1155): > 8000 nM | IC50 (NEC8): > 8000 nM | IC50 (NKM-1): > 8000 nM | IC50 (NOMO-1): > 8000 nM | IC50 (OMC-1): > 8000 nM | IC50 (RKO): > 8000 nM | IC50 (RXF 393): > 8000 nM | IC50 (SF-268): > 8000 nM | IC50 (SK-N-FI): > 8000 nM | IC50 (SW684): > 8000 nM | IC50 (SW982): > 8000 nM | IC50 (8-MG-BA): > 8000 nM | IC50 (BB65-RCC): > 8000 nM | IC50 (BT-474): > 8000 nM | IC50 (TE-12): > 8000 nM | IC50 (TGBC24TKB): > 8000 nM | IC50 (TGW): > 8000 nM | IC50 (no-10): > 8000 nM | IC50 (COLO-668): > 8000 nM

CCC/C=C/C=C/C(=O)O[C@H]1/C(=C/C(=O)OC)C[C@H]2C[C@H]([C@@H](C)O)OC(=O)C[C@H](O)C[C@@H]3C[C@H](OC(C)=O)C(C)(C)[C@](O)(C[C@@H]4C/C(=C/C(=O)OC)C[C@H](/C=C/C(C)(C)[C@]1(O)O2)O4)O3 [BRYOSTATIN 1]
IC50 (CP66-MEL): > 8 nM | IC50 (CTV-1): > 8 nM | IC50 (CW-2): > 8 nM | IC50 (DB): > 8 nM | IC50 (DOHH-2): > 8 nM | IC50 (EKVX): > 8 nM | IC50 (ES6): > 8 nM | IC50 (ETK-1): > 8 nM | IC50 (EW-18): > 8 nM | IC50 (EOL1): > 8 nM | IC50 (GCIY): > 8 nM | IC50 (HT-144): > 8 nM | IC50 (HuTu80): > 8 nM | IC50 (IST-MEL1): > 8 nM | IC50 (JVM-3): > 8 nM | IC50 (KGN): > 8 nM | IC50 (KM12): > 8 nM | IC50 (KNS-42): > 8 nM | IC50 (KY821): > 8 nM | IC50 (LB2241-RCC): > 8 nM | IC50 (Lu-65): > 8 nM | IC50 (MEG-01): > 8 nM | IC50 (MHH-PREB-1): > 8 nM | IC50 (MN-60): > 8 nM | IC50 (MOLT-4): > 8 nM | IC50 (MS-1): > 8 nM | IC50 (MV4-11): > 8 nM | IC50 (MZ1-PC): > 8 nM | IC50 (NB5): > 8 nM | IC50 (NB6): > 8 nM | IC50 (NCI-H1092): > 8 nM | IC50 (NCI-H1155): > 8 nM | IC50 (NEC8): > 8 nM | IC50 (NKM-1): > 8 nM | IC50 (NOMO-1): > 8 nM | IC50 (OMC-1): > 8 nM | IC50 (RKO): > 8 nM | IC50 (RXF 393): > 8 nM | IC50 (SF-268): > 8 nM | IC50 (SK-N-FI): > 8 nM | IC50 (SW684): > 8 nM | IC50 (SW982): > 8 nM | IC50 (8-MG-BA): > 8 nM | IC50 (BB65-RCC): > 8 nM | IC50 (BT-474): > 8 nM | IC50 (TE-12): > 8 nM | IC50 (TGBC24TKB): > 8 nM | IC50 (TGW): > 8 nM | IC50 (no-10): > 8 nM | IC50 (COLO-668): > 8 nM
